Our source for the IC50 values is patent US11306079B2, “3-(5-amino-pyrazin-2-yl)-benzenesulfonamide derivatives and related compounds as PI3K-gamma kinase inhibitors” (Incyte Corporation, priority 2017, dated 2022).

Assay [1] relates to Phosphorylated Ribosomal Protein S6 (RPS6) in THP-1 cells. Nature of the assay: THP-1 RPS6 ELISA Assay. The assay is classed as cell-based. The following applies: Homo sapiens; serum starved THP-1 cells, 2 hours with compound, 10 nM MCP-1 for 15 minutes, Phospho-RPS6 ELISA; read-out: PI3Kγ_THP1_RPS6_ELISA IC50. The method, then:
Example A. THP-1 RPS6 ELISA Assay
To measure the Phosphorylated Ribosomal Protein S6 (RPS6) in cell lysates, THP-1 cells (Human Acute Monocytic Leukemia) are purchased from ATCC (Manassas, Va.) and maintained in RPMI with 10% FBS (Gibco/Life Technologies, Carlsbad, Calif.). For the assay, THP-1 cells are serum starved overnight in RPMI, then plated in RPMI (2×10^5 cells/well in 90 μL) into 96-well flat-bottom tissue culture treated plates (Corning, Corning, N.Y.), in the presence or absence of a concentration range of test compounds. Covered plates are incubated for 2 hours at 37° C., 5% CO2 then treated with or without 10 nM MCP-1 (MYBioSource, San Diego, Calif.) for 15 minutes at 37° C., 5% CO2. Plates are centrifuged at 1600 RPM and supernatants are removed. Cells are lysed in Lysis Buffer (Cell Signaling, Danvers, Mass.) with Protease Inhibitor (Calbiochem/EMD, Germany), PMSF (Sigma, St Louis Mo.), HALTS (Thermo Fisher, Rockford, Ill.) for 30 min on wet ice. Cell lysates are frozen at −80° C. before testing. The lysates are tested in the Human/Mouse/Rat Phospho-RPS6 ELISA (R&D Systems, Inc. Minn, Minn.). The plate is measured using a microplate reader (SpectraMax M5—Molecular Devices, LLC Sunnyvale, Calif.) set to 450 nm with a wavelength correction of 540. IC50 determination is performed by fitting the curve of inhibitor percent inhibition versus the log of the inhibitor concentration using the GraphPad Prism 5.0 software.
On the technique in general: ELISA stands for enzyme-linked immunosorbent assay.

Assay [2] concerns the target PI3Kγ (p110γ) Recombinant Human Protein (Homo sapiens (Human), UniProt P48736). Nature of the assay: PI3K-γ Scintillation Proximity Assay. The assay is classed as biochemical. The following applies: 20 μM PIP2, 2 μM ATP, 13 nM PI3Kγ, 120 min, room temperature. The text has this:
Example B. PI3K-γ Scintillation Proximity Assay
[γ-^33P]ATP (10 mCi/mL) and Wheat Germ Agglutinin (WGA) YSi SPA Scintillation Beads was purchased from Perkin-Elmer (Waltham, Mass.). Lipid kinase substrate, D-myo-Phosphatidylinositol 4,5-bisphosphate (PtdIns(4,5)P2)D (+)-sn-1,2-di-O-octanoylglyceryl, 3-O-phospho linked (PIP2), CAS 204858-53-7, was purchased from Echelon Biosciences (Salt Lake City, Utah). PI3Kγ (p110γ) Recombinant Human Protein was purchased from Life technology (Grand island, NY), ATP, MgCl2, DTT, EDTA, MOPS and CHAPS were purchased from Sigma-Aldrich (St. Louis, Mo.).
(§1) The kinase reaction was conducted in polystyrene 384-well Greiner Bio-one white plate from Thermo Fisher Scientific in a final volume of 25 μL. Inhibitors were first diluted serially in DMSO and added to the plate wells before the addition of other reaction components. The final concentration of DMSO in the assay was 2%. The PI3Kγ assay was carried out at room temperature in 20 mM MOPS, pH 6.7, 10 mM MgCl2, 5 mM DTT and CHAPS 0.03%. Reactions were initiated by the addition of ATP, the final reaction mixture consisted of 20 μM PIP2, 2 μM ATP, 0.5 μCi [γ-^33P] ATP, 13 nM PI3Kγ. Reactions were incubated for 120 min and terminated by the addition of 40 μL SPA beads suspended in quench buffer: 163 mM potassium phosphate pH 7.8, 20% glycerol, 25 mM EDTA. The final concentration of SPA beads is 1.0 mg/mL. After the plate sealing, plates were shaken overnight at room temperature and centrifuged at 1500 rpm for 10 min, the radioactivity of the product was determined by scintillation counting on Topcount (Perkin-Elmer). IC50 determination was performed by fitting the curve of percent of the solvent control activity versus the log of the inhibitor concentration using the GraphPad Prism 6.0 software.
For orientation: Scintillation proximity formats need no separation of bound from free tracer.

For assay [3], the target named is PI3Kδ (p110δ/p85α) Recombinant Human Protein (Homo sapiens (Human), UniProt O00329). Nature of the assay: PI3Kδ Scintillation Proximity Assay. The following applies: 20 μM PIP2, 2 μM ATP, 3.4 nM PI3Kδ, 120 min, room temperature. It is filed as biochemical.
Sequence of PI3Kδ (p110δ/p85α) Recombinant Human Protein (O00329 whole entry): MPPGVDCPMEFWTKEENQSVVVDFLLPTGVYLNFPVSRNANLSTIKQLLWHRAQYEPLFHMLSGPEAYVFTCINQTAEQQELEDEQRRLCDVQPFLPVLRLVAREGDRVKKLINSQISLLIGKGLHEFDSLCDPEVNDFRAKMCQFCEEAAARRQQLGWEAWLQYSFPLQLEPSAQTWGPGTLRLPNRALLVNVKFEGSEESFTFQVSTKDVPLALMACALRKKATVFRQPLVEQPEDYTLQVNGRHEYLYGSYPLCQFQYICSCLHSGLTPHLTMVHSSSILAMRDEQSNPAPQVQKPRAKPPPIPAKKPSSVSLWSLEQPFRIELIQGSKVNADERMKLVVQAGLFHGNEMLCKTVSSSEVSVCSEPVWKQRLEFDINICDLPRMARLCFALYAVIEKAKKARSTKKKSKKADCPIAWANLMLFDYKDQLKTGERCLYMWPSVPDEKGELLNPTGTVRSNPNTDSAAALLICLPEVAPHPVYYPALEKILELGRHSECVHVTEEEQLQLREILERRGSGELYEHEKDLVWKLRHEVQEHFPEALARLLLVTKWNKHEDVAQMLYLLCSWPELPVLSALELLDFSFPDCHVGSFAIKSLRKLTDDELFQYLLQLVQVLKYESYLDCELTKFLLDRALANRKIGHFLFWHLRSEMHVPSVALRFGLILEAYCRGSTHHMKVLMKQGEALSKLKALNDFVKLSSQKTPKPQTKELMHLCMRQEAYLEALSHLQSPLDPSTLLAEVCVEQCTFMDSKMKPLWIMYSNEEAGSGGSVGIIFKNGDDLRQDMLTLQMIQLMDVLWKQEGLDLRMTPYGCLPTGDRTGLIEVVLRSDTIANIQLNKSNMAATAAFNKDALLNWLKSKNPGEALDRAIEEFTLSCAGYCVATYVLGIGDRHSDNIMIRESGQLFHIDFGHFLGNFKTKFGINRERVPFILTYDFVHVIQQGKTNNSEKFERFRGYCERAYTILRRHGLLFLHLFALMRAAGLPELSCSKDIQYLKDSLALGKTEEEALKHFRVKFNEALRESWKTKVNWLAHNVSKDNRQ
Sequence of PI3Kδ (p110δ/p85α) Recombinant Human Protein (P27986 whole entry partner): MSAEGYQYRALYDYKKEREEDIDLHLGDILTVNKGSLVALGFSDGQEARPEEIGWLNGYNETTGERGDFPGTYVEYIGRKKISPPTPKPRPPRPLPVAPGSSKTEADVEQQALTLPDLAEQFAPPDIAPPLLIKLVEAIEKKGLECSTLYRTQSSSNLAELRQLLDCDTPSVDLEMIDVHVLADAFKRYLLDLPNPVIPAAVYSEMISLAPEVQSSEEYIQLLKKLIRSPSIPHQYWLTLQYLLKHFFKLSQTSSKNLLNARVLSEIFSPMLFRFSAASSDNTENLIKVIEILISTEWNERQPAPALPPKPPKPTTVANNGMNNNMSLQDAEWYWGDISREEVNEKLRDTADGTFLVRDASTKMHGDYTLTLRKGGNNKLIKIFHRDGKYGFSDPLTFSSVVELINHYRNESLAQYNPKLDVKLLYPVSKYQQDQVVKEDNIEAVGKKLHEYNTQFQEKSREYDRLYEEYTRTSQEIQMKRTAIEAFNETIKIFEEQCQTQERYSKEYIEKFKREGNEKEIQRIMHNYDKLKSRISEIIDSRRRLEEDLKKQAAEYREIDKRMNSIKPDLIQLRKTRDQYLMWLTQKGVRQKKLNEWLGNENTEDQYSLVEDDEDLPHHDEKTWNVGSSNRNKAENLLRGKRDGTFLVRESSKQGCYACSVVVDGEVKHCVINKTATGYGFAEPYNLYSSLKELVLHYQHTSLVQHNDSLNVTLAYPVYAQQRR
Description: Example C. PI3Kδ Scintillation Proximity Assay
[γ-^33P]ATP (10 mCi/mL) and Wheat Germ Agglutinin (WGA) YSi SPA Scintillation Beads was purchased from Perkin-Elmer (Waltham, Mass.). Lipid kinase substrate, D-myo-Phosphatidylinositol 4,5-bisphosphate (PtdIns(4,5)P2)D (+)-sn-1,2-di-O-octanoylglyceryl, 3-O-phospho linked (PIP2), CAS 204858-53-7, was purchased from Echelon Biosciences (Salt Lake City, Utah). PI3Kδ (p110δ/p85α) Recombinant Human Protein was purchased from Eurofins (St Charles, Mo.). ATP, MgCl2, DTT, EDTA, MOPS and CHAPS were purchased from Sigma-Aldrich (St. Louis, Mo.).
as §1, with “PI3Kδ” for “PI3Kγ”, “3.4” for “13”, “PI3Kδ.” for “PI3Kγ.”

Each structure is given as a SMILES string. Structures can show the parent of a compound that is named as a salt.

The term IC50 denotes the point on the concentration scale where inhibition reaches its midpoint.

Sequence of PI3Kγ (p110γ) Recombinant Human Protein (P48736 whole entry): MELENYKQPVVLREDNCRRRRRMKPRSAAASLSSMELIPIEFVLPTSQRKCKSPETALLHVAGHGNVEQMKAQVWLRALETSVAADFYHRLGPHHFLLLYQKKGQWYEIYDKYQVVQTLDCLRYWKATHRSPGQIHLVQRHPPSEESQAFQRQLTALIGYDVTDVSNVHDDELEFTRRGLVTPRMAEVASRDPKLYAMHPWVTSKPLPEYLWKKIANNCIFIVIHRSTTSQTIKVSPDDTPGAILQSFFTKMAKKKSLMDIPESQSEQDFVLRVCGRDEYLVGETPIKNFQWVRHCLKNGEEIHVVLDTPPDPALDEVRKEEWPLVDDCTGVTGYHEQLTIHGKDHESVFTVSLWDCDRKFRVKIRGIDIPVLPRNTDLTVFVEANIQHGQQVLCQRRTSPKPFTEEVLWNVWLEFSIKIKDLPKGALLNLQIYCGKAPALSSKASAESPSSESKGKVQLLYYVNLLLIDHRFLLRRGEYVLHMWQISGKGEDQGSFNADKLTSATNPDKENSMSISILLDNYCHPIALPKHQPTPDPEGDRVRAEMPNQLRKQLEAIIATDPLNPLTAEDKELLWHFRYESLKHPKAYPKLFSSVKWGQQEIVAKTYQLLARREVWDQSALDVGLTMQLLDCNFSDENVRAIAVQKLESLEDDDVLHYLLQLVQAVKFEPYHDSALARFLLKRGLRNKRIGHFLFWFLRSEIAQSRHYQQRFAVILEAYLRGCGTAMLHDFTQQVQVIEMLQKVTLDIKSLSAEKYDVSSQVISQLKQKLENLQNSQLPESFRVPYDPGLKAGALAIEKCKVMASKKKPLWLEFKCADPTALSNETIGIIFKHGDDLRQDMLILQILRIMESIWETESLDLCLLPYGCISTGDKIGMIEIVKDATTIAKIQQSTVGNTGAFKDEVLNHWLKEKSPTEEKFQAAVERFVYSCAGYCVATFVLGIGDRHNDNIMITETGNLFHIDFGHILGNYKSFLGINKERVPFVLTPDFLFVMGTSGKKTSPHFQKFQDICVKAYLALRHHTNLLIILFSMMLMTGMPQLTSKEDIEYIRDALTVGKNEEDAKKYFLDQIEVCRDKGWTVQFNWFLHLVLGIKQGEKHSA

Consider `Cc1ncc(-c2nc(-c3cc(S(=O)(=O)NC45CCC(O)(CC4)C5)ccc3C)cnc2N)s1` [Example 7, 3-(5-Amino-6-(2-methylthiazol-5-yl)pyrazin-2-yl)-N-(4-hydroxybicyclo[2.2.1]heptan-1-yl)-4-methylbenzenesulfonamide trifluoroacetate salt], for which the IC50 in assay [1], in assay [2] and in assay [3] was not above 100 nM in each case.

Consider `O=C(O)C(F)(F)F.[2H]C([2H])([2H])c1ccc(S(=O)(=O)NC23CNC(C2)C3)cc1-c1cnc(N)c(-c2cnc(C3CC3)s2)n1` [Example 55, 3-(5-Amino-6-(2-cyclopropylthiazol-5-yl)pyrazin-2-yl)-N-(2-azabicyclo[2.1.1]hexan-4-yl)-4-(methyl-d3)benzenesulfonamide trifluoroacetate salt], for which the 50% inhibitory concentration (IC50) in assay [1] is not above 500 nM; in assay [2], not above 100 nM; in assay [3] it was not above 100 nM.

`Cc1ccc(S(=O)(=O)NC23CCN(CC2)C3)cc1-c1cnc(N)c(-n2cccn2)n1` [Example 93, 3-(5-amino-6-(1H-pyrazol-1-yl)pyrazin-2-yl)-N-(1-azabicyclo[2.2.1]heptan-4-yl)-4-methylbenzenesulfonamide]: the IC50 in assay [1], in assay [2] and in assay [3] was not above 100 nM each time.

Regarding `Cc1ccc(S(=O)(=O)NC23CCC(O)(CC2)C3)cc1-c1cnc(N)c(-c2ccncc2)n1` [Example 17, 3-(5-Amino-6-(pyridin-4-yl)pyrazin-2-yl)-N-(4-hydroxybicyclo[2.2.1]heptan-1-yl)-4-methylbenzenesulfonamide Trifluoroacetate Salt], the IC50 is not above 500 nM in assay [1], not above 100 nM in assay [2] and not above 500 nM in assay [3].

On to `Cc1ccc(S(=O)(=O)NC23CCC(CO)(CC2)OC3)cc1-c1cnc(N)c(-c2ccncc2F)n1` [Example 20, 3-(5-Amino-6-(3-fluoropyridin-4-yl)pyrazin-2-yl)-N-(1-(hydroxymethyl)-2-oxabicyclo[2.2.2]octan-4-yl)-4-methylbenzenesulfonamide trifluoroacetate salt], for which the IC50 in assay [1] was not above 500 nM; in assay [2], not above 100 nM; in assay [3], not above 500 nM.

Consider `CNC(=O)OCC12CC(NS(=O)(=O)c3ccc(C)c(-c4cnc(N)c(-n5cncn5)n4)c3)(C1)C2` [Example 31, (3-(3-(5-Amino-6-(1H-1,2,4-triazol-1-yl)pyrazin-2-yl)-4-methylphenylsulfonamido)bicyclo[1.1.1]pentan-1-yl)methyl Methylcarbamate Trifluoroacetate Salt], for which the values for the IC50 in assay [1], in assay [2] and in assay [3] were not above 500 nM, not above 100 nM and not above 500 nM, respectively.

Turning to `Cc1ccc(S(=O)(=O)NC23CC(C#N)(C2)C3)cc1-c1cnc(N)c(-c2cn(C)nc2C)n1` [Example 10, 3-(5-Amino-6-(1,3-dimethyl-1H-pyrazol-4-yl)pyrazin-2-yl)-N-(3-cyanobicyclo[1.1.1]pentan-1-yl)-4-methylbenzenesulfonamide Trifluoroacetate Salt], the results for the IC50 in assay [1], in assay [2] and in assay [3] were not above 500 nM, not above 100 nM and not above 100 nM, respectively.

Regarding `Cc1ccc(S(=O)(=O)NC23CC(C(=O)NCC(F)(F)F)(C2)C3)cc1-c1cnc(N)c(-n2cncn2)n1` [Example 35, 3-(3-(5-Amino-6-(1H-1,2,4-triazol-1-yl)pyrazin-2-yl)-4-methylphenylsulfonamido)-N-(2,2,2-trifluoroethyl)bicyclo[1.1.1]pentane-1-carboxamide trifluoroacetate salt], the concentration for half-maximal inhibition (IC50) in assay [1] was not above 1000 nM; in assay [2], not above 100 nM; in assay [3], not above 500 nM.

In the case of `[2H]C([2H])([2H])c1ccc(S(=O)(=O)NC23CC(CO)(C2)C3)cc1-c1cnc(N)c(-n2cncn2)n1` [Example 49, 3-(5-Amino-6-(1H-1,2,4-triazol-1-yl)pyrazin-2-yl)-N-(3-(hydroxymethyl)bicyclo[1.1.1]pentan-1-yl)-4-(methyl-d3)benzenesulfonamide Trifluoroacetate Salt], the IC50 in assay [1] was not above 500 nM; in assay [2], not above 100 nM; in assay [3], not above 100 nM.

Consider `Cc1ccc(S(=O)(=O)NC23CCC(CO)(CC2)OC3)cc1-c1cnc(N)c(-c2ccnc(C(F)(F)F)c2)n1` [Example 21, 3-(5-Amino-6-(2-(trifluoromethyl)pyridin-4-yl)pyrazin-2-yl)-N-(1-(hydroxymethyl)-2-oxabicyclo[2.2.2]octan-4-yl)-4-methylbenzenesulfonamide trifluoroacetate salt], for which the IC50 in assay [1] is not above 500 nM; in assay [2], not above 100 nM; in assay [3] it was not above 500 nM.

On to `Cc1ncc(-c2nc(-c3cc(S(=O)(=O)NC45CC(CO)(C4)C5)ccc3C)cnc2N)s1` [Example 3, 3-(5-Amino-6-(2-methylthiazol-5-yl)pyrazin-2-yl)-N-(3-(hydroxymethyl)bicyclo[1.1.1]pentan-1-yl)-4-methylbenzenesulfonamide trifluoroacetate salt], for which the IC50 in assay [1], in assay [2] and in assay [3] was not above 100 nM throughout.

As to `[2H]C([2H])([2H])c1ccc(S(=O)(=O)NC23CC(C#N)(C2)C3)cc1-c1cnc(N)c(-c2cnco2)n1` [Example 73, 3-(5-Amino-6-(oxazol-5-yl)pyrazin-2-yl)-N-(3-cyanobicyclo[1.1.1]pentan-1-yl)-4-(methyl-d3)benzenesulfonamide trifluoroacetate salt], the IC50 in assay [1], in assay [2] and in assay [3] was not above 100 nM throughout.

For `Cc1ccc(S(=O)(=O)NC23CC(C(C)(C)O)(C2)C3)cc1-c1cnc(N)c(-n2cncn2)n1` [Example 29, 3-(5-Amino-6-(1H-1,2,4-triazol-1-yl)pyrazin-2-yl)-N-(3-(2-hydroxypropan-2-yl)bicyclo[1.1.1]pentan-1-yl)-4-methylbenzenesulfonamide trifluoroacetate salt], the IC50 in assay [1] was not above 500 nM; in assay [2], not above 100 nM; in assay [3] it was not above 500 nM.
